Measurements published in patent US10316035B2, “Triazolopyridine inhibitors of myeloperoxidase” (BRISTOL-MYERS SQUIBB COMPANY, priority 2015, dated 2019).

Key:
myeloperoxidase (MPO) [1] = target: T1, myeloperoxidase (MPO) (Homo sapiens, UniProt P05164); assay: MPO peroxidation assay (Amplex Red assay); format: biochemical
T1 sequence (P05164 49-745): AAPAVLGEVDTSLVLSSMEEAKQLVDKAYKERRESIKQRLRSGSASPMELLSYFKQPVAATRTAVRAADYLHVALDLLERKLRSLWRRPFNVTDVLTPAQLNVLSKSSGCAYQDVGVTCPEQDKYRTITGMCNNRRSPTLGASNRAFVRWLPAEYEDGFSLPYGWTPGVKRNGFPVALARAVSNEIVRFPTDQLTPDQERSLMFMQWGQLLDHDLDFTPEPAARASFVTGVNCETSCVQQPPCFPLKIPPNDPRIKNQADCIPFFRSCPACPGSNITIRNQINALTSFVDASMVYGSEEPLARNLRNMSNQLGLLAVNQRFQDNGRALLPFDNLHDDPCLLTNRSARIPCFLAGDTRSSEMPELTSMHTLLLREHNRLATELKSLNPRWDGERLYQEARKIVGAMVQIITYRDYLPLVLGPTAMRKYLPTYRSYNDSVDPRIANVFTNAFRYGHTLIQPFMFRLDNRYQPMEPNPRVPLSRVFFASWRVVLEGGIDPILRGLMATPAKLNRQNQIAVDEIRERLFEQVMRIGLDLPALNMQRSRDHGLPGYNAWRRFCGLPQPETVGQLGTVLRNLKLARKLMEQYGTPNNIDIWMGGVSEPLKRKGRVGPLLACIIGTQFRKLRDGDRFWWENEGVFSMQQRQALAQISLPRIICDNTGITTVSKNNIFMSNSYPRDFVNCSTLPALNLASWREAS
Outline: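 MPO (200 pM) with 40 nM H2O2 was preincubated 10 min at room temperature with inhibitor in 100 mM KPi pH 7.4. A mix of Amplex Red (200 μM) and H2O2 (10 mM) was then added and resorufin fluorescence read kinetically for 15 min. Slopes over 180–540 s gave % inhibition and IC50 via a four-parameter Hill fit.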

myeloperoxidase (MPO) [2] = target: T1, myeloperoxidase (MPO); assay: MPO chlorination assay (APF assay); format: biochemical
Protocol: [formula] where A=minimal Y value (activity level of inhibited sample), B=maximal Y value (activity level of uninhibited sample), C=Log IC50, D=Hill Slope, x=concentration of inhibitor. MPO Chlorination Assay (APF Assay)
MPO chlorination activity was measured in 100 mM KPi (pH 7.4) by utilizing the non-fluorescent reagent Aminophenyl fluorescein (APF, Invitrogen catalog #A36003). APF is cleaved by (—OCl) to yield the fluorescent compound fluorescein. Reactions were carried out in 50 μL total volume by adding a 25 μL mixture of 200 pM myeloperoxidase and 120 mM NaCl to 100 nL inhibitor in 100% DMSO in a 384 well, non-binding surface clear bottom plate (CORNING® #3655). Enzyme, inhibitor, and chloride were preincubated for ten minutes at room temperature.
After the ten minute preincubation, 25 μL of an APF mixture containing […], 120 mM NaCl and 10 μM H2O2 was added to the plate using the internal dispensing system of a Hammatsu FDSS 6000. Kinetic determinations were carried out immediately on the FDSS 6000 (3 minute kinetic read, 1 read every second, ex: 485 nm, em: 535 nm). IC50 values for inhibitors were calculated by taking the slope of the linear portion of the kinetic measurement (20 seconds to ˜80-120 secs).
IC50 values were calculated by determining the slope of the linear portion of the kinetic trace ([…]), and using that calculated slope to determine % inhibition occurring at each concentration of inhibitor using the following equation:
[formula] where A=minimal Y value (activity level of inhibited sample), B=maximal Y value (activity level of uninhibited sample), C=Log IC50, D=Hill Slope, x=concentration of inhibitor. EPX Bromination Assay

[3] = MPO peroxidation, potency range class, read-out: Amplex Red IC50
[4] = MPO chlorination, potency range class, read-out: APF IC50

Row | SMILES | IC50 (myeloperoxidase (MPO) [1]; [3]) | IC50 (myeloperoxidase (MPO) [2]; [4]) | IC50 (myeloperoxidase (MPO) [1]) | IC50 (myeloperoxidase (MPO) [2])
1 | Nc1cc(OCc2cc(Cl)ccc2OC(F)(F)F)c2nn[nH]c2n1 [Example 36, 7-(5-Chloro-2-(trifluoromethoxy)benzyloxy)-3H-[1,2,3]triazolo[4,5-b]pyridin-5-amine] | 1 to 100 nM | 1 to 100 nM | – | –
2 | Nc1cc(OCc2cc(S(F)(F)(F)(F)F)ccc2F)c2nn[nH]c2n1 [Example 226, 7-(5-Pentafluorosulfanyl-2-fluorobenzyloxy)-3H-[1,2,3]triazolo[4,5-b]pyridin-5-amine] | 1 to 100 nM | 101 to 999 nM | – | –
3 | Nc1cc(OCc2ccc(-n3cc(C(F)(F)F)cn3)cc2OC(F)(F)F)c2nn[nH]c2n1 [Example 271, 7-((2-(trifluoromethoxy)-4-(4-(trifluoromethyl)-1H-pyrazol-1-yl)benzyl)oxy)-3H-[1,2,3]triazolo[4,5-b]pyridin-5-amine] | 1 to 100 nM | 1000 to 10000 nM | – | –
4 | Cc1nccn1-c1ccc(COc2cc(N)nc3[nH]nnc23)c(C#N)c1 [Example 277, 2-(((5-amino-3H-[1,2,3]triazolo[4,5-b]pyridin-7-yl)oxy)methyl)-5-(2-methyl-1H-imidazol-1-yl)benzonitrile] | 101 to 999 nM | 1000 to 10000 nM | – | –
5 | CC(C)n1cc(-c2ccc(COc3cc(N)nc4[nH]nnc34)c(OC(F)(F)F)c2)cn1 [Example 305, 7-((4-(1-isopropyl-1H-pyrazol-4-yl)-2-(trifluoromethoxy)benzyl)oxy)-3H-[1,2,3] triazolo[4,5-b]pyridin-5-amine] | 1 to 100 nM | 101 to 999 nM | – | –
6 | COc1ncc(-c2cc(F)c(COc3cc(N)nc4[nH]nnc34)c(F)c2)cn1 [Example 334, 7-((2,6-difluoro-4-(2-methoxypyrimidin-5-yl)benzyl)oxy)-3H-[1,2,3]triazolo[4,5-b] pyridin-5-amine] | 1 to 100 nM | 101 to 999 nM | – | –
7 | Nc1cc(OCc2c(F)cc(-c3ccc(N4CCNCC4)nc3)cc2F)c2nn[nH]c2n1 [Example 336, 7-((2,6-difluoro-4-(6-(piperazin-1-yl)pyridin-3-yl)benzyl)oxy)-3H-[1,2,3]triazolo[4,5-b] pyridin-5-amine] | 1 to 100 nM | 1 to 100 nM | – | –
8 | Nc1cc(OCc2c(F)ccc(-c3cncc(C(=O)N4CCOCC4)c3)c2Cl)c2nn[nH]c2n1 [Example 345, (5-(3-(((5-amino-3H-[1,2,3]triazolo[4,5-b]pyridin-7-yl)oxy)methyl)-2-chloro-4-fluorophenyl)pyridin-3-yl)(morpholine) methanone] | 101 to 999 nM | 1000 to 10000 nM | – | –

Next, values leading:

Row | IC50 (myeloperoxidase (MPO) [1]; [3]) | IC50 (myeloperoxidase (MPO) [2]; [4]) | IC50 (myeloperoxidase (MPO) [1]) | IC50 (myeloperoxidase (MPO) [2]) | SMILES
9 | 1 to 100 nM | 101 to 999 nM | – | – | Nc1cc(OCc2cc(Cl)ccc2OC2CCCC2)c2nn[nH]c2n1 [Example 43, 7-(5-Chloro-2-(cyclopentyloxy)benzyloxy)-3H-[1,2,3]triazolo[4,5-b]pyridin-5-amine]
10 | 1 to 100 nM | 101 to 999 nM | – | – | CS(=O)(=O)c1ccc(Cl)cc1COc1cc(N)nc2[nH]nnc12 [Example 50, 7-(5-Chloro-2-(methylsulfonyl)benzyloxy)-3H-[1,2,3]triazolo[4,5-b]pyridin-5-amine]
11 | 101 to 999 nM | 1000 to 10000 nM | – | – | Nc1cc(OCC2CCCc3ccccc32)c2nn[nH]c2n1 (centres unmarked) [Example 52, 7-((1,2,3,4-Tetrahydronaphthalen-1-yl)methoxy)-3H-[1,2,3]triazolo[4,5-b]pyridin-5-amine]
12 | 1 to 100 nM | 1 to 100 nM | – | – | COc1ccc(Cl)cc1COc1cc(N)nc2[nH]nnc12 [Example 57, 7-(5-Chloro-2-methoxybenzyloxy)-3H-[1,2,3]triazolo[4,5-b]pyridin-5-amine]
13 | 1 to 100 nM | 1 to 100 nM | – | – | Nc1cc(OCc2cc(Br)ccc2F)c2nn[nH]c2n1 [Example 61, 7-(5-Bromo-2-fluorobenzyloxy)-3H-[1,2,3]triazolo[4,5-b]pyridin-5-amine]
14 | 1 to 100 nM | 101 to 999 nM | – | – | CC1CCCC(C)C1COc1cc(N)nc2[nH]nnc12 (centres unmarked) [Example 133, 7-((2,6-Dimethylcyclohexyl)methoxy)-3H-[1,2,3]triazolo[4,5-b]pyridin-5-amine]
15 | 1 to 100 nM | 101 to 999 nM | – | – | CC(Oc1cc(N)nc2[nH]nnc12)c1cccc(F)c1 (centres unmarked) [Example 139, 7-(1-(3-Fluorophenyl)ethoxy)-3H-[1,2,3]triazolo[4,5-b]pyridin-5-amine]
16 | 101 to 999 nM | 1000 to 10000 nM | – | – | Nc1cc(OCc2cc(C(=O)N3CCC(Cc4ccccc4)C3)ccc2Cl)c2nn[nH]c2n1 (centres unmarked) [Example 177, (3-((5-amino-3H-[1,2,3]triazolo [4,5-b]pyridin-7-yloxy)methyl)-4-chlorophenyl)(3-benzylpyrrolidin-1-yl)methanone]
17 | – | – | 1 to 100 nM | 1 to 100 nM | Nc1cc(OCc2c(Cl)cccc2Cl)c2nn[nH]c2n1 [Example 234, 7-((2,6-Dichlorobenzyl)oxy)-3H-[1,2,3]triazolo[4,5-b]pyridin-5-amine]
18 | 1 to 100 nM | 1 to 100 nM | – | – | COc1cc(Br)ccc1COc1cc(N)nc2[nH]nnc12 [Example 242, 7-((4-Bromo-2-methoxybenzyl)oxy)-3H-[1,2,3]triazolo[4,5-b]pyridin-5-amine]
19 | 1000 to 10000 nM | 1000 to 10000 nM | – | – | NC(=O)c1ccccc1COc1cc(N)nc2[nH]nnc12 [Example 254, 2-(((5-Amino-3H-[1,2,3]triazolo[4,5-b]pyridin-7-yl)oxy)methyl)benzamide]
